According to ChEMBL document CHEMBL1201862, “PubChem BioAssay data set” (2004):
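Five compound concentrations were applied to cells in 96-well plates for 48 hours; endpoints were derived by simple linear interpolation of the resulting dose-response curve. The concentration for 50% growth inhibition is given as GI50.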 The source made the active and inactive calls. Cut-off read from the data, not from the text of the source: active = GI50 up to about 1.1 µM and inactive = higher.

Key:
Test in all cases: DTP human tumour cell line panel, 48 h
CAKI-1 = tested on: CAKI-1
CCRF-CEM = tested on: CCRF-CEM
COLO 205 = tested on: COLO 205
Hs-578T = tested on: Hs-578T
IGROV-1 = tested on: IGROV-1
K562 = tested on: K562
KM12 = tested on: KM12
LOX IMVI = tested on: LOX IMVI
M14 = tested on: M14
NCI-H460 = tested on: NCI-H460
OVCAR-4 = tested on: OVCAR-4
SF-539 = tested on: SF-539
SK-MEL-2 = tested on: SK-MEL-2
SK-MEL-5 = tested on: SK-MEL-5
SNB-19 = tested on: SNB-19
SW-620 = tested on: SW-620
TK-10 = tested on: TK-10
U-251 = tested on: U-251
UACC-62 = tested on: UACC-62

| SMILES | GI50 (CAKI-1) | GI50 (CCRF-CEM) | GI50 (COLO 205) | GI50 (Hs-578T) | GI50 (IGROV-1) | GI50 (K562) | GI50 (KM12) | GI50 (LOX IMVI) | GI50 (M14) | GI50 (NCI-H460) | GI50 (OVCAR-4) | GI50 (SF-539) | GI50 (SK-MEL-2) | GI50 (SK-MEL-5) | GI50 (SNB-19) | GI50 (SW-620) | GI50 (TK-10) | GI50 (U-251) | GI50 (UACC-62) |
| --- | --- | --- | --- | --- | --- | --- | --- | --- | --- | --- | --- | --- | --- | --- | --- | --- | --- | --- | --- |
| CN(C)CCOc1ccc(-c2c(Oc3ccccc3)c(=O)oc3ccccc23)cc1 | 22.3 µM (inactive) | 0.459 µM (active) | 11 µM (inactive) | 17.8 µM (inactive) | 10.7 µM (inactive) | 2.39 µM (inactive) | 21.4 µM (inactive) | 13.1 µM (inactive) | 2.23 µM (inactive) | 13.5 µM (inactive) | 27.2 µM (inactive) | 14.1 µM (inactive) | 13.4 µM (inactive) | 3.78 µM (inactive) | 8.02 µM (inactive) | 11.4 µM (inactive) | 13.6 µM (inactive) | 4.86 µM (inactive) | 13.3 µM (inactive) |
| O=C1Nc2nccnc2C(=O)N2CCC[C@@H]12 | > 100 µM (inactive) | > 100 µM (inactive) | > 100 µM (inactive) | > 100 µM (inactive) | > 100 µM (inactive) | > 100 µM (inactive) | > 100 µM (inactive) | > 100 µM (inactive) | > 100 µM (inactive) | > 100 µM (inactive) | > 100 µM (inactive) | > 100 µM (inactive) | > 100 µM (inactive) | > 100 µM (inactive) | > 100 µM (inactive) | > 100 µM (inactive) | > 100 µM (inactive) | > 100 µM (inactive) | > 100 µM (inactive) |
| N#C/C(=C1C=C(Br)/C(=N\O)C=C\1Cl)c1cccc2ccccc12 | 3.48 µM (inactive) | 2.62 µM (inactive) | 2.29 µM (inactive) | 3.55 µM (inactive) | 6.24 µM (inactive) | 3.51 µM (inactive) | 3.92 µM (inactive) | 4.29 µM (inactive) | 2.77 µM (inactive) | 5.16 µM (inactive) | 2.49 µM (inactive) | 1.96 µM (inactive) | 2.48 µM (inactive) | 3.42 µM (inactive) | 10.5 µM (inactive) | 3.53 µM (inactive) | 11.5 µM (inactive) | 2.96 µM (inactive) | 4.12 µM (inactive) |
| O=C1c2cc3ncsc3cc2C(=O)c2c(O)ccc(O)c21 | > 100 µM (inactive) | 98.9 µM (inactive) | > 100 µM (inactive) | > 100 µM (inactive) | > 100 µM (inactive) | > 100 µM (inactive) | > 100 µM (inactive) | > 100 µM (inactive) | > 100 µM (inactive) | > 100 µM (inactive) | > 100 µM (inactive) | > 100 µM (inactive) | > 100 µM (inactive) | > 100 µM (inactive) | > 100 µM (inactive) | > 100 µM (inactive) | > 100 µM (inactive) | > 100 µM (inactive) | > 100 µM (inactive) |
| CCOC(=O)C(SCCO)C(C(=O)OCC)n1cnc2c(=O)[nH]c(NC(C)=O)nc21 (centres undefined) | > 100 µM (inactive) | > 100 µM (inactive) | > 100 µM (inactive) | > 100 µM (inactive) | > 100 µM (inactive) | > 100 µM (inactive) | > 100 µM (inactive) | 51.8 µM (inactive) | > 100 µM (inactive) | > 100 µM (inactive) | > 100 µM (inactive) | > 100 µM (inactive) | > 100 µM (inactive) | > 100 µM (inactive) | > 100 µM (inactive) | > 100 µM (inactive) | > 100 µM (inactive) | > 100 µM (inactive) | > 100 µM (inactive) |
| CN(CCC(=O)O)C1=Nc2ccc(Cl)cc2C(c2ccccc2)=[N+]([O-])C1 | 78.5 µM (inactive) | > 100 µM (inactive) | > 100 µM (inactive) | > 100 µM (inactive) | > 100 µM (inactive) | > 100 µM (inactive) | > 100 µM (inactive) | > 100 µM (inactive) | > 100 µM (inactive) | > 100 µM (inactive) | 72.1 µM (inactive) | > 100 µM (inactive) | > 100 µM (inactive) | > 100 µM (inactive) | > 100 µM (inactive) | > 100 µM (inactive) | > 100 µM (inactive) | > 100 µM (inactive) | > 100 µM (inactive) |
